# According to US10941157B2, “Pesticidal compositions and uses thereof” (Gilead Apollo, LLC, priority 2015, dated 2021):
# Read-outs that look alike come from different tables or passages of the source.
# Experiments:
# Assay type in all cases: cell-based
# [1] = tested on: Collectotrichum graminicola (Cg); test: In vitro pathogen growth inhibition assay, Cg; details: 48 h
# In short: (§1)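 Spores in 17% V8 liquid medium, or 1.5 mm Rs mycelial plugs in ¼ PDB, incubated with compound; final concentration checked by OD600 for precipitation. OD readings at 24 and 48 h, blank-subtracted, plus visual ratings; value is concentration giving ≥90% growth inhibition.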
# Rhizoctonia solani (Rs) = test: In vitro pathogen growth inhibition assay, Rs (mycelial plugs); details: Rhizoctonia solani, 48 h
# In short: (§2)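 Value reported is the compound concentration reaching ≥90% growth inhibition, from OD readings at 24 and 48 h after blank subtraction, confirmed visually. Inoculum was spores diluted in 17% V8 medium, except Rs, using 1.5 mm mycelial plugs in ¼ PDB; actual compound concentration corrected via OD600.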
# Botrtyis cinerea (Bc) = test: In vitro pathogen growth inhibition assay, Bc; details: 48 h
# In short: as §1
# Diplodia maydis (Dm) = test: In vitro pathogen growth inhibition assay, Dm; details: Stenocarpella maydis, 48 h
# In short: as §2
# [2] = tested on: Fusarium moniliforme (Fm); test: In vitro pathogen growth inhibition assay, Fm; details: Fusarium verticillioides
# In short: as §1
# Septoria tritici (St) = test: In vitro pathogen growth inhibition assay, St; details: Zymoseptoria tritici, 48 h
# In short: as §1
# [3] = tested on: Fusarium virguliforme (Fv); test: In vitro pathogen growth inhibition assay, Fv
# In short: as §2
# [4] = tested on: Phytophthora capsici (Pc); test: In vitro pathogen growth inhibition assay, Pc; details: 48 h
# In short: as §2
# [5] = ≥90% growth inhibition, 48 hours, vs 2% DMSO control, read-out: Compound Concentration (ppm) sufficient for ≥90% inhibition of Cg
# [6] = ≥90% growth inhibition, mycelial plugs, 48 hours, vs 2% DMSO control, read-out: Compound Concentration (ppm) sufficient for ≥90% inhibition of Rs
# [7] = ≥90% growth inhibition, 48 hours, vs 2% DMSO control, read-out: Compound Concentration (ppm) sufficient for ≥90% inhibition of Bc
# [8] = ≥90% growth inhibition, 48 hours, vs 2% DMSO control, read-out: Compound Concentration (ppm) sufficient for ≥90% inhibition of Dm
# [9] = ≥90% growth inhibition, 48 hours, vs 2% DMSO control, read-out: Compound Concentration (ppm) sufficient for ≥90% inhibition of Fm
# [10] = ≥90% growth inhibition, 48 hours, vs 2% DMSO control, read-out: Compound Concentration (ppm) sufficient for ≥90% inhibition of St
# [11] = ≥90% growth inhibition, 48 hours, vs 2% DMSO control, read-out: Compound Concentration (ppm) sufficient for ≥90% inhibition of Fv
# [12] = ≥90% growth inhibition, 48 hours, vs 2% DMSO control, read-out: Compound Concentration (ppm) sufficient for ≥90% inhibition of Pc
# [13] = ≥90% inhibition, 48 hours vs 2% DMSO control, read-out: Compound Concentration (ppm) sufficient for ≥90% inhibition of growth, Cg
# [14] = ≥90% inhibition, mycelial plugs, 48 hours vs 2% DMSO control, read-out: Compound Concentration (ppm) sufficient for ≥90% inhibition of growth, Rs
# [15] = ≥90% inhibition, 48 hours vs 2% DMSO control, read-out: Compound Concentration (ppm) sufficient for ≥90% inhibition of growth, Bc
# [16] = ≥90% inhibition, 48 hours vs 2% DMSO control, read-out: Compound Concentration (ppm) sufficient for ≥90% inhibition of growth, Dm
# [17] = ≥90% inhibition, 48 hours vs 2% DMSO control, read-out: Compound Concentration (ppm) sufficient for ≥90% inhibition of growth, Fm
# [18] = ≥90% inhibition, 48 hours vs 2% DMSO control, read-out: Compound Concentration (ppm) sufficient for ≥90% inhibition of growth, St
# [19] = ≥90% inhibition, 48 hours vs 2% DMSO control, read-out: Compound Concentration (ppm) sufficient for ≥90% inhibition of growth, Fv
# [20] = ≥90% inhibition, 48 hours vs 2% DMSO control, read-out: Compound Concentration (ppm) sufficient for ≥90% inhibition of growth, Pc
Compound,"IC90 [1, 5] [µg/mL]",IC90 (Rhizoctonia solani (Rs); [6]) [µg/mL],IC90 (Botrtyis cinerea (Bc); [7]) [µg/mL],IC90 (Diplodia maydis (Dm); [8]) [µg/mL],"IC90 [2, 9] [µg/mL]",IC90 (Septoria tritici (St); [10]) [µg/mL],"IC90 [3, 11] [µg/mL]","IC90 [4, 12] [µg/mL]","IC90 [1, 13] [µg/mL]",IC90 (Rhizoctonia solani (Rs); [14]) [µg/mL],IC90 (Botrtyis cinerea (Bc); [15]) [µg/mL],IC90 (Diplodia maydis (Dm); [16]) [µg/mL],"IC90 [2, 17] [µg/mL]",IC90 (Septoria tritici (St); [18]) [µg/mL],"IC90 [3, 19] [µg/mL]","IC90 [4, 20] [µg/mL]",also measured
CCOC(=O)c1sc2c(c1C)c(=O)n(C(C)(C)C(=O)N1CCCC1)c(=O)n2C[C@H](O)c1cc(F)ccc1OC [Compound I-224],10,0.08,2,> 50,2,> 50,2,> 50,–,–,–,–,–,–,–,–,–
CCO[C@@H](Cn1c(=O)n(C(C)(C)C(=O)NC(C)C)c(=O)c2c(C)c(-n3nccn3)sc21)c1cc(F)ccc1OC [Compound I-054],–,–,–,–,–,–,–,–,0.4,0.4,0.4,0.4,0.08,10,≥ 0.08,> 50,–
COCCO[C@@H](Cn1c(=O)n(C(C)(C)C(=O)NC(C)C)c(=O)c2c(C)c(-n3cccn3)sc21)c1cc(F)ccc1OC [Compound I-163],50,10,10,≥ 10,2,> 50,2,> 50,–,–,–,–,–,–,–,–,–
COc1ccc(F)cc1[C@H](Cn1c(=O)n(C(C)(C)C(=O)N2CCCC2)c(=O)c2c(C)c(-n3cccn3)sc21)OC[C@@H](C)O [Compound I-135],–,–,–,–,–,–,–,–,10,≥ 2,2,≥ 10,0.4,50,2,> 50,–
COc1ccc(F)cc1[C@H](Cn1c(=O)n(C(C)(C)C(=O)N2CCCC2)c(=O)c2c(C)c(-n3nccn3)sc21)OC(C)C [Compound I-023],–,–,–,–,–,–,–,–,0.08,0.08,0.4,0.08,0.08,> 10,≥ 0.08,> 50,–
COc1ccc(F)cc1[C@H](Cn1c(=O)n(C(C)(C)C(=O)N2CCCC2)c(=O)c2c(C)c(-n3nccn3)sc21)OCCC#N [Compound I-195],2,2,2,≥ 2,2,> 50,2,> 50,–,–,–,–,–,–,–,–,–
Cc1c(-n2nccn2)sc2c1c(=O)n(C(C)(C)C(=O)NC(C)C)c(=O)n2CCc1cc(F)ccc1OCc1ccccc1 [Compound I-332],> 50,> 50,> 50,> 50,2,> 50,2,> 50,–,–,–,–,–,–,–,–,–
COc1ccc(F)cc1[C@H](Cn1c(=O)n(C(C)(C)C(=O)N2CCCC2)c(=O)c2c(C)c(-n3cccn3)sc21)OCCC#N [Compound I-194],50,10,10,50,2,> 50,≥ 10,> 50,–,–,–,–,–,–,–,–,–
COc1ccc(F)cc1[C@H](Cn1c(=O)n([C@H](C)C(=O)NC(C)C)c(=O)c2c(C)c(-n3cccn3)sc21)OC(C)C [Compound I-127],–,–,–,–,–,–,–,–,2,2,2,2,0.4,> 50,0.4,> 50,–
COCCO[C@@H](Cn1c(=O)n([C@H](C)C(=O)N2CCCC2)c(=O)c2c(C)c(-n3nccn3)sc21)c1cc(F)ccc1OC [Compound I-140],–,–,–,–,–,–,–,–,10,2,2,10,0.4,> 50,0.4,> 50,–
COc1ccccc1[C@H](Cn1c(=O)n(C(C)(C)C(=O)NC(C)C)c(=O)c2c(C)c(-n3cccn3)sc21)OC1CCOCC1 [Compound I-157],–,–,–,–,–,–,–,–,≥ 10,50,10,10,2,≥ 50,≥ 10,> 50,–
COc1ccc(F)cc1[C@H](Cn1c(=O)n(C(C)(C)C(=O)NC(C)C)c(=O)c2c(C)c(-n3nccn3)sc21)OC1CCC(=O)CC1 [Compound I-050],–,–,–,–,–,–,–,–,2,0.08,0.08,≥ 0.08,0.08,> 50,0.4,50,–
COc1ccccc1[C@H](Cn1c(=O)n([C@H](C)C(=O)NC(C)C)c(=O)c2c(C)c(-n3cccn3)sc21)OCCC#N [Compound I-333],2,2,2,10,0.4,> 50,10,50,–,–,–,–,–,–,–,–,–
COc1ccc(F)cc1[C@H](Cn1c(=O)n(C(C)(C)C(=O)NC(C)C)c(=O)c2c(C)c(-n3cccn3)sc21)O[C@H]1CC[C@@H](O)CC1 [Compound I-049],–,–,–,–,–,–,–,–,50,2,0.4,2,0.08,> 50,2,> 50,–
COc1ccc(F)cc1[C@H](Cn1c(=O)n(C(C)C(=O)N2CCCC2)c(=O)c2c(C)c(-n3cccn3)sc21)OC(C)C (stereo partly shown) [Compound I-062],–,–,–,–,–,–,–,–,0.4,2,0.4,1.2,0.08,50,0.4,50,–
COc1ccc(F)cc1[C@H](Cn1c(=O)n(C(C)(C)C(=O)NC(C)C)c(=O)c2c(C)c(-n3cccn3)sc21)OC1CCOCC1 [Compound I-115],–,–,–,–,–,–,–,–,≥ 2,10,2,≥ 2,0.4,≥ 50,2,> 50,–
CCOC(=O)c1sc2c(c1C)c(=O)n(C(C)(C)C(=O)NC(C)C)c(=O)n2CCc1cc(F)ccc1OCCC#N [Compound I-339],> 50,50,10,> 50,2,> 50,2,> 50,–,–,–,–,–,–,–,–,–
COc1ccc(F)cc1[C@](O)(CCO)Cn1c(=O)n(C(C)(C)C(=O)NC(C)C)c(=O)c2c(C)c(-n3nccn3)sc21 [Compound I-275],–,–,–,–,–,–,–,–,–,–,–,–,–,–,–,–,"IC90 ([1]; concentration sufficient to ≥90% inhibition of growth, 48 hours vs 2% DMSO control, read-out: Compound Concentration (ppm) for ≥90% inhibition, Cg): 50 µg/mL; IC90 (Rhizoctonia solani (Rs); concentration sufficient to ≥90% inhibition of growth, 48 hours vs 2% DMSO control, read-out: Compound Concentration (ppm) for ≥90% inhibition, Rs): 50 µg/mL; IC90 (Botrtyis cinerea (Bc); concentration sufficient to ≥90% inhibition of growth, 48 hours vs 2% DMSO control, read-out: Compound Concentration (ppm) for ≥90% inhibition, Bc): 50 µg/mL; IC90 (Diplodia maydis (Dm); concentration sufficient to ≥90% inhibition of growth, 48 hours vs 2% DMSO control, read-out: Compound Concentration (ppm) for ≥90% inhibition, Dm): > 50 µg/mL; IC90 ([2]; concentration sufficient to ≥90% inhibition of growth, 48 hours vs 2% DMSO control, read-out: Compound Concentration (ppm) for ≥90% inhibition, Fm): 50 µg/mL; IC90 (Septoria tritici (St); concentration sufficient to ≥90% inhibition of growth, 48 hours vs 2% DMSO control, read-out: Compound Concentration (ppm) for ≥90% inhibition, St): > 50 µg/mL; IC90 ([3]; concentration sufficient to ≥90% inhibition of growth, 48 hours vs 2% DMSO control, read-out: Compound Concentration (ppm) for ≥90% inhibition, Fv): > 50 µg/mL; IC90 ([4]; concentration sufficient to ≥90% inhibition of growth, 48 hours vs 2% DMSO control, read-out: Compound Concentration (ppm) for ≥90% inhibition, Pc): > 50 µg/mL"
COc1ccc(F)cc1[C@H](Cn1c(=O)n(C(C)(C)C(=O)N2CC=CC2)c(=O)c2c(C)c(-n3nccn3)sc21)OC1CCOCC1 [Compound I-075],–,–,–,–,–,–,–,–,0.4,0.08,2,0.4,0.08,> 50,0.4,> 50,–
COc1ccccc1[C@H](Cn1c(=O)n(C(C)(C)C(=O)NC(C)C)c(=O)c2c(C)c(-n3cccn3)sc21)OCC(C)C [Compound I-119],–,–,–,–,–,–,–,–,10,2,2,≥ 2,0.4,> 50,10,> 50,–
